{"source": "patent US8778631B2", "about": "“Mono charging system for selectively introducing non-native amino acids into proteins using an in vitro protein synthesis system” (priority 2009, dated 2014)", "biological_target": "T1, PheRS (Escherichia coli, UniProt P08312)", "T1 construct": "endogenous in cells; host or cells: cell-free extract (lysate) of E. coli strain KGK10", "T1 sequence (P07395 whole entry)": "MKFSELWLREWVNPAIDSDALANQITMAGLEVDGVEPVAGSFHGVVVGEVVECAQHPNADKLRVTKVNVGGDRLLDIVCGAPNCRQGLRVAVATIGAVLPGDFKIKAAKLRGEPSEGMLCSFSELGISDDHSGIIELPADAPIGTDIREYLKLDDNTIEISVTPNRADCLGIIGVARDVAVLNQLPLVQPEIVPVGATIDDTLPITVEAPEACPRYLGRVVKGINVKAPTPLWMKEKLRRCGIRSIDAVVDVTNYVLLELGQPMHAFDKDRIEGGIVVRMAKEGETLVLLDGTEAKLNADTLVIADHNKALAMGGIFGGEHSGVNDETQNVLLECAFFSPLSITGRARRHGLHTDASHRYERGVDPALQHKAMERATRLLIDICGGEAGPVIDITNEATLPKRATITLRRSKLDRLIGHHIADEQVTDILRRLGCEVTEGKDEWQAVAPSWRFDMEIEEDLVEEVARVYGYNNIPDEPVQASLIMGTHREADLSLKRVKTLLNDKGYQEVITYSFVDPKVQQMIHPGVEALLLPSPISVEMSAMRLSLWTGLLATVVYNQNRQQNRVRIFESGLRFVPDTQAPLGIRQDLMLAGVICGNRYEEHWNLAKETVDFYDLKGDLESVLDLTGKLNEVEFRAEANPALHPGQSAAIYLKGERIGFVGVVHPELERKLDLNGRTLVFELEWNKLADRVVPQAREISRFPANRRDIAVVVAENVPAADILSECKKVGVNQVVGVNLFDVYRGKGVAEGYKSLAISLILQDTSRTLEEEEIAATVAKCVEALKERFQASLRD", "T1 sequence (P08312 whole entry)": "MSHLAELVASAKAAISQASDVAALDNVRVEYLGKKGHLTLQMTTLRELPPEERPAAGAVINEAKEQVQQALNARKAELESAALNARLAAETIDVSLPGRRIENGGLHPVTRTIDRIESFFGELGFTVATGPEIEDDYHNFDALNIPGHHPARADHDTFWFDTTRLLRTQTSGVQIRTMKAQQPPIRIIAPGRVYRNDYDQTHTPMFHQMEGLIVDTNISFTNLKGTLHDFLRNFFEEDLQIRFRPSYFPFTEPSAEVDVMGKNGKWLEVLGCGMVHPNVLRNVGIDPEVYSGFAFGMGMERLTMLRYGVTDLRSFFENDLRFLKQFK", "test": "Inhibition of the rate of cell-free synthesis of turboGFP by Phe-SA", "assay_type": "biochemical, E. coli", "details": "cell-free synthesis of turboGFPY50TAG with pAF-tRNACUA^Phe", "protocol": "A modified “run-off procedure” was used to prepare the cell-free extract. Fermentation volume to generate sufficient cell-free extract was typically 2.5× the desired cell-free reaction volume. To inactivate the reducing activity of the cell extract, iodoacetamide (IAM) at various concentrations was added as previously described (Yang, Kanter et al. (2004) Biotechnol Prog, 20, 1689-96). Gene expression was under the control of the T7 promoter. In order to facilitate translation initiation, genes were synthesized (DNA 2.0, Menlo Park, Calif.) with synonymous codons at the 5′ end of the gene with ATG start codon (N-terminal methionine residue) optimized for mRNA instability as measured by mRNA ΔGfold in the −6 to +37 positions (Kudla, Murray et al. (2009) Science, 324, 255-258) and rare codons were replaced.\nCell-free reactions were run at 30° C. containing 8 mM magnesium glutamate, 10 mM ammonium glutamate, 130 mM potassium glutamate, 35 mM sodium pyruvate, 1.2 mM AMP, 0.86 mM each of GMP, UMP, & CMP, 2 mM amino acids (1 mM for tyrosine), 4 mM sodium oxalate, 1 mM putrescine, 1.5 mM spermidine, 15 mM potassium phosphate, 100 nM T7 RNA polymerase, 2-50 nM DNA template(s), 1-10 μM E. coli DsbC, and 24-30% (v/v) IAM-treated cell-free extract."}
{"smiles": "Nc1ncnc2c1ncn2[C@@H]1O[C@H](COS(=O)(=O)NC(=O)[C@@H](N)Cc2ccccc2)[C@@H](O)[C@H]1O", "note": "[Phe-SA, 5′-O—[N-(Phenylalanyl)sulfamoyl]adenosine]", "values": [{"measurement": "time after which the inhibitor begins to lose its effectiveness", "value": "7 to 8", "unit": "h"}]}
